Data from patent US6579873B2, “3 (5)-heteroaryl substituted pyrazoles as p38 kinase inhibitors” (Pharmacia Corporation, priority 1997, dated 2003).
pIC50: −log10 of the molar value.

How the values were obtained:
human p38 kinase alpha [1] = target: T1, human p38 kinase alpha (Homo sapiens, UniProt Q16539); test: p38 kinase in vitro assay, PHAS-I phosphorylation (32P-ATP); type: biochemical; conditions: p38α in vitro results based on PHAS-I assay procedure, read-out: P38α^1
T1 construct: The coding region of the human p38a cDNA was obtained by PCR-amplification from RNA; made in house; host or cells: E. coli DH10B
Method: The ability of compounds to inhibit human p38 kinase alpha was evaluated using two in vitro assay methods. In the first method, activated human p38 kinase alpha phosphorylates a biotinylated substrate, PHAS-I (phosphorylated heat and acid stable protein-insulin inducible), in the presence of gamma ^32P-ATP (^32P-ATP). PHAS-I was biotinylated prior to the assay and provides a means of capturing the substrate which is phosphorylated during the assay. p38 Kinase was activated by MKK6. Compounds were tested in 10 fold serial dilutions over the range of 100 μM to 0.001 μM using 1% DMSO. Each concentration of inhibitor was tested in triplicate.
All reactions were carried out in 96 well polypropylene plates. Each reaction well contained 25 mM HEPES pH 7.5, 10 mM magnesium acetate and 50 μM unlabeled ATP. Activation of p38 was required to achieve sufficient signal in the assay. Biotinylated PHAS-I was used at 1-2 μg per 50 μl reaction volume, with a final concentration of 1.5 μM. Activated human p38 kinase alpha was used at 1 μg per 50 μl reaction volume representing a final concentration of 0.3 μM. Gamma ^32P-ATP was used to follow the phosphorylation of PHAS-I. ^32P-ATP has a specific activity of 3000 Ci/mmol and was used at 1.2 μCi per 50 μl reaction volume. The reaction Proceeded either for one hour or overnight at 30° C.
Following incubation, 20 μl of reaction mixture was transferred to a high capacity streptavidin coated filter plate (SAM-streptavidin-matrix, Promega) prewetted with phosphate buffered saline. The transferred reaction mix was allowed to contact the streptavidin membrane of the Promega plate for 1-2 minutes. Following capture of biotinylated PHAS-I with ^32P incorporated, each well was washed to remove unincorporated ^32P-ATP three times with 2M NaCl, three washes of 2M NaCl with 1% phosphoric, three washes of distilled water and finally a single wash of 95% ethanol. Filter plates were air dried and 20 μl of scintillant was added. The plates were sealed and counted.

human p38 kinase alpha [2] = target: T1, human p38 kinase alpha; test: p38 kinase in vitro assay, EGFRP phosphorylation (33P-ATP); type: biochemical; conditions: p38α in vitro results based on EGFRP assay procedure, read-out: p38α^2
Method: A second assay format was also employed that is based on p38 kinase alpha induced phosphorylation of EGFRP (epidermal growth factor receptor peptide, a 21 mer) in the presence of ^33P-ATP. Compounds were tested in 10 fold serial dilutions over the range of 100 μM to 0.001 μM in 1% DMSO. Each concentration of inhibitor was tested in triplicate. Compounds were evaluated in 50 μl reaction volumes in the presence of 25 mM Hepes pH 7.5, 10 mM magnesium acetate, 4% glycerol, 0.4% bovine serum albumin, 0.4 mM DTT, 50 μM unlabeled ATP, 25 μg EGFRP (200 μM), and 0.05 uCi gamma ^33P-ATP. Reactions were initiated by addition of 0.09 μg of activated, purified human GST-p38 kinase alpha. Activation was carried out using GST-MKK6 (5:1,p38:MKK6) for one hour at 30° C. in the presence of 50 μM ATP. Following incubation for 60 minutes at room temperature, the reaction was stopped by addition of 150 μl of AG 1×8 resin in 900 mM sodium formate buffer, pH 3.0 (1 volume resin to 2 volumes buffer). The mixture was mixed three times with pipetting and the resin was allowed to settle. A total of 50 μl of clarified solution head volume was transferred from the reaction wells to Microlite-2 plates. 150 μl of Microscint 40 was then added to each well of the Microlite plate, and the plate was sealed, mixed, and counted.

[3] = tested on: TNF production by U937 cells; test: LPS stimulation of TNF production by U937 cells; type: cell-based; conditions: Homo sapiens, U-937, LPS-stimulated TNF-α release, differentiated U937 cells, 4 hour incubation
Method: U937 cells (ATCC) were propagated in RPMI 1640 containing 10% Fetal bovine serum, 100 IU/ml penicillin, 100 μg/ml streptomycin, and 2 mM glutamine (Gibco). Fifty million cells in 100 ml media were induced to terminal monocytic differentiation by 24 hour incubation with 20 ng/ml phorbol 12-myristate 13-acetate (Sigma). The cells were washed by centrifugation (200×g for 5 min) and resuspended in 100 ml fresh medium. After 24-48 hours, the cells were harvested, centrifuged, and resuspended in culture medium at 2 million cells/ml.
U937 cells (0.1 ml, 2 million/ml) were incubated with 0.1 ml compound (0.004-50 μM, final concentration) for 1 hour in 96 well microtiter plates. Compounds were prepared as 10 mM stock solutions in DMSO and diluted in culture medium to yield a final DMSO concentration of 0.1% in the cell assay. LPS (E. coli, 100 ng/ml final concentration) was then added at a volume of 0.02 ml. After 4 hour incubation at 37° C., the amount of TNF-α released in the culture medium was quantitated by ELISA. Inhibitory potency is expressed as IC50 (μM).

serum TNF = test: Mouse model of LPS-induced TNF alpha production; type: in vivo, BALB/c female mice; conditions: percent inhibition of serum TNF, oral gavage 6 hours prior to LPS injection, mice
Method: TNF alpha was induced in 10-12 week old BALB/c female mice by tail vein injection with 100 ng lipopolysaccharide (from S. Typhosa) in 0.2 ml saline. One hour later mice were bled from the retroorbital sinus and TNF concentrations in serum from clotted blood were quantified by ELISA. Typically, peak levels of serum TNF ranged from 2-6 ng/ml one hour after LPS injection.
The compounds tested were administered to fasted mice by oral gavage as a suspension in 0.2 ml of 0.5% methylcellulose and 0.025% Tween 20 in water at 1 hour or 6 hours prior to LPS injection. The 1 hour protocol allowed evaluation of compound potency at Cmax plasma levels whereas the 6 hour protocol allowed estimation of compound duration of action. Efficacy was determined at each time point as percent inhibition of serum TNF levels relative to LPS injected mice that received vehicle only.

T1 sequence (Q16539 whole entry): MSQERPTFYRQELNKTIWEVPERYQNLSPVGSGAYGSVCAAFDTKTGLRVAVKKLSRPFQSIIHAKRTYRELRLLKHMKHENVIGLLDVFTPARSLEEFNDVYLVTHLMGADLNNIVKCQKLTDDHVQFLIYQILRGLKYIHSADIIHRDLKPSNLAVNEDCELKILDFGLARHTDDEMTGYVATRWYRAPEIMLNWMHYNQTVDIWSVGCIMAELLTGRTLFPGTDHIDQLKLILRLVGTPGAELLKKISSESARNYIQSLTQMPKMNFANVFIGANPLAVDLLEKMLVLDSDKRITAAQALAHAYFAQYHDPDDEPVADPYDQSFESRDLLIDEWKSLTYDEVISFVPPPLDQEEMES

Compound	pIC50 (human p38 kinase alpha [1])	pIC50 (human p38 kinase alpha [2])	melting point	pIC50 [3]	mLPS (6 h @ (30 mpk)) (serum TNF)
4-(4-fluorophenyl)-3-(4-pyridinyl)-1H-pyrazole-1-ethanol and 4-(4-fluorophenyl)-5-(4-pyridinyl)-1H-pyrazole-1-ethanol [Example 11]	6.16	–	–	–	–
4-(4-fluorophenyl)-N,N-dimethyl-3-(4-pyridinyl)-1H-pyrazole-1-ethanamine and 4-(4fluorophenyl)-N,N-dimethyl-5-(4-pyridinyl)-1H-pyrazole-1-ethanamine [Example 12]	6.03	–	–	–	–
4-[2-[4-(4-fluorophenyl)-3-(4-pyridinyl)-1H-pyrazol-1-yl]ethyl]morpholine and 4-[2-[4-(4-fluorophenyl)-5-(4-pyridinyl)-1H-pyrazol-1-yl]ethyl]morpholine [Example 13]	6.07	–	–	–	–
Cc1n[nH]c(-c2ccncc2)c1-c1ccccc1 [Example 1, 4-(3-methyl-4-phenyl-1H-pyrazol-5-yl)pyridine]	4.52	4.87	164 to 165 °C	≤ 5.00	–
CS(=O)(=O)Nc1n[nH]c(-c2ccncc2)c1-c1ccc(F)cc1 [Example 3, N-[4 (4-fluorophenyl)-5-(4-pyridinyl)-1H-pyrazol-3-yl]methanesulfonamide]	–	5.59	168 to 170 °C	< 5.00	–
CNS(=O)(=O)Nc1n[nH]c(-c2ccncc2)c1-c1ccc(F)cc1 [Example 4, N-[4-(4-fluorophenyl)-5-(4-pyridinyl)-1H-pyrazol-3-yl]-N′-methylsulfamide]	–	6.64	194 to 195 °C	5.33	54%
Cn1nc(-c2ccncc2)c(-c2ccc(Cl)cc2)c1N [Example 7, 4-(4-chlorophenyl)-1-methyl-3-(4-pyridinyl)-1H-pyrazol-5-amine]	–	5.26	257 to 258 °C	≤ 5.00	–
Clc1ccc(-c2c[nH]nc2-c2ccncc2)cc1 [Example 15, 4-[4-(4-chlorcophenyl)-1H-pyrazol-3-yl]pyridine]	5.23	6.12	–	–	32%

Second part, led by results:

pIC50 (human p38 kinase alpha [1])	pIC50 (human p38 kinase alpha [2])	melting point	pIC50 [3]	Compound	mLPS (6 h @ (30 mpk)) (serum TNF)
–	5.21	178 to 180 °C	4.97	Nc1n[nH]c(-c2ccncc2)c1-c1ccc(F)cc1 [Example 2, 4-(4-fluorophenyl)-5-(4-pyridinyl)-1H-pyrazol-3-amine]	–
5.70	–	–	5.26	NC(=O)Nc1n[nH]c(-c2ccncc2)c1-c1ccc(F)cc1 [Example 5, [4-(4-fluorophenyl)-5-(4-pyridinyl)-1H-pyrazol-3-yl]urea]	–
–	–	212 to 213 °C	≤ 5.00	CNC(=O)Nc1n[nH]c(-c2ccncc2)c1-c1ccc(F)cc1 [Example 8, N-[4-(4-fluorophenyl)-5-(4-pyridinyl)-1H-pyrazol-3-yl]-N′-methylurea]	–
5.61	5.46	–	6.19	Fc1ccc(-c2cn[nH]c2-c2ccncc2)cc1 [Example 9, 4-[4-(4-fluorophenyl)-1H-pyrazol-3-yl]pyridine]	42%
5.14	6.40	–	5.80	Cn1cc(-c2ccc(F)cc2)c(-c2ccncc2)n1 [Example 10, 4-[4-(4-fluorophenyl)-1-methyl-1H-pyrazol-3-yl]pyridine]	76%
